Columns and labels:
Kit = Kit (Homo sapiens, UniProt P10721); assay: Kinase activity assay, Kit
B-Raf V600E = B-Raf V600E (Homo sapiens, UniProt P15056, V600E); assay: Kinase activity assay, B-Raf V600E; type: biochemical; details: read-out: activity toward kinase B-Raf V600E, IC50
Kdr = Kdr (Homo sapiens, UniProt P35968); assay: Kinase activity assay, Kdr
Btk = Btk (Homo sapiens, UniProt Q06187); assay: Kinase activity assay, Btk
Fms = Fms (Homo sapiens, UniProt P07333); assay: Kinase activity assay, Fms
Sequence of Fms (P07333 20-972): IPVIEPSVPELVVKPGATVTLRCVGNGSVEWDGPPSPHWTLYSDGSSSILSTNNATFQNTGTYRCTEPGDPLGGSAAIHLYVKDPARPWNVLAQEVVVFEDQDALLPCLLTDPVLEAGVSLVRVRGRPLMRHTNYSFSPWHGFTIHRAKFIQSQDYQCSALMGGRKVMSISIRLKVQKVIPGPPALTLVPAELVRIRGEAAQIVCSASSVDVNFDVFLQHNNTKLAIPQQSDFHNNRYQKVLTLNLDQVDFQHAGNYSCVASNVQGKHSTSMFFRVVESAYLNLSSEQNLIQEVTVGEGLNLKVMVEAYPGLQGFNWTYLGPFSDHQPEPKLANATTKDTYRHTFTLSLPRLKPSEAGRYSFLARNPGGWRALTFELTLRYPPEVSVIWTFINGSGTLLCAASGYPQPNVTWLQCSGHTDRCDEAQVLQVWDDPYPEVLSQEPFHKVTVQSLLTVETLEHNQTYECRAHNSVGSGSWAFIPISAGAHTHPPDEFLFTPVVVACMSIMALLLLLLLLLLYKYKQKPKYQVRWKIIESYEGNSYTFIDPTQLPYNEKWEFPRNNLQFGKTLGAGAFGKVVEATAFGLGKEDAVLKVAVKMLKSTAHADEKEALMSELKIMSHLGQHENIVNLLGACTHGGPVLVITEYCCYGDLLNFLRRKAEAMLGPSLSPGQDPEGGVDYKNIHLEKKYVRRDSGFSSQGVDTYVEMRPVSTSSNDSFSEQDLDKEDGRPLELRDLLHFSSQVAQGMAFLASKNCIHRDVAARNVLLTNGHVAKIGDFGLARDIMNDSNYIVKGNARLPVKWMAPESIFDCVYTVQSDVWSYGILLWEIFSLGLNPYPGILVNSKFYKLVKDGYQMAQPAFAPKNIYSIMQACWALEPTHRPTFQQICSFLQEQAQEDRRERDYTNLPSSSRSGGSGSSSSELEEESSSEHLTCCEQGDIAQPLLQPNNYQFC

TEC = molecular target: T1, TEC (Homo sapiens, UniProt P42680); assay: Kinase activity assay, TEC
T1 sequence (P42680 1-631): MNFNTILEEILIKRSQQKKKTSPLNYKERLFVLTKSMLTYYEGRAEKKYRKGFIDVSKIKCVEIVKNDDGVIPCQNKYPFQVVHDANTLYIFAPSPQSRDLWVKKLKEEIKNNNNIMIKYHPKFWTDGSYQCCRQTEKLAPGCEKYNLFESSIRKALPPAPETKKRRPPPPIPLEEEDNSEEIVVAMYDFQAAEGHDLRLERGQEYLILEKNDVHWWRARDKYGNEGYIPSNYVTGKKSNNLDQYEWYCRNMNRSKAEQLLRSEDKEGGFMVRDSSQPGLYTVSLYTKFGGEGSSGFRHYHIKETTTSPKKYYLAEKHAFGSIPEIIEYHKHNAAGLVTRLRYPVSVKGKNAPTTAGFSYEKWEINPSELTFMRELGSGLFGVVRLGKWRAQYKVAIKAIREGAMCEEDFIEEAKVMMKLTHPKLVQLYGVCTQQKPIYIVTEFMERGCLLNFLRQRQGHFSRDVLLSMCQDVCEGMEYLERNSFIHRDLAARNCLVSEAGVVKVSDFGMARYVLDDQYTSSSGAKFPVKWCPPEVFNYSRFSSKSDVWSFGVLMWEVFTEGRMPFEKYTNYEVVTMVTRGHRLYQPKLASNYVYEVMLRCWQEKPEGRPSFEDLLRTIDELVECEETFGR

MAP4K4 = MAP4K4 (Homo sapiens, UniProt O95819); assay: Kinase activity assay, MAP4K4
Sequence of MAP4K4 (O95819 whole entry): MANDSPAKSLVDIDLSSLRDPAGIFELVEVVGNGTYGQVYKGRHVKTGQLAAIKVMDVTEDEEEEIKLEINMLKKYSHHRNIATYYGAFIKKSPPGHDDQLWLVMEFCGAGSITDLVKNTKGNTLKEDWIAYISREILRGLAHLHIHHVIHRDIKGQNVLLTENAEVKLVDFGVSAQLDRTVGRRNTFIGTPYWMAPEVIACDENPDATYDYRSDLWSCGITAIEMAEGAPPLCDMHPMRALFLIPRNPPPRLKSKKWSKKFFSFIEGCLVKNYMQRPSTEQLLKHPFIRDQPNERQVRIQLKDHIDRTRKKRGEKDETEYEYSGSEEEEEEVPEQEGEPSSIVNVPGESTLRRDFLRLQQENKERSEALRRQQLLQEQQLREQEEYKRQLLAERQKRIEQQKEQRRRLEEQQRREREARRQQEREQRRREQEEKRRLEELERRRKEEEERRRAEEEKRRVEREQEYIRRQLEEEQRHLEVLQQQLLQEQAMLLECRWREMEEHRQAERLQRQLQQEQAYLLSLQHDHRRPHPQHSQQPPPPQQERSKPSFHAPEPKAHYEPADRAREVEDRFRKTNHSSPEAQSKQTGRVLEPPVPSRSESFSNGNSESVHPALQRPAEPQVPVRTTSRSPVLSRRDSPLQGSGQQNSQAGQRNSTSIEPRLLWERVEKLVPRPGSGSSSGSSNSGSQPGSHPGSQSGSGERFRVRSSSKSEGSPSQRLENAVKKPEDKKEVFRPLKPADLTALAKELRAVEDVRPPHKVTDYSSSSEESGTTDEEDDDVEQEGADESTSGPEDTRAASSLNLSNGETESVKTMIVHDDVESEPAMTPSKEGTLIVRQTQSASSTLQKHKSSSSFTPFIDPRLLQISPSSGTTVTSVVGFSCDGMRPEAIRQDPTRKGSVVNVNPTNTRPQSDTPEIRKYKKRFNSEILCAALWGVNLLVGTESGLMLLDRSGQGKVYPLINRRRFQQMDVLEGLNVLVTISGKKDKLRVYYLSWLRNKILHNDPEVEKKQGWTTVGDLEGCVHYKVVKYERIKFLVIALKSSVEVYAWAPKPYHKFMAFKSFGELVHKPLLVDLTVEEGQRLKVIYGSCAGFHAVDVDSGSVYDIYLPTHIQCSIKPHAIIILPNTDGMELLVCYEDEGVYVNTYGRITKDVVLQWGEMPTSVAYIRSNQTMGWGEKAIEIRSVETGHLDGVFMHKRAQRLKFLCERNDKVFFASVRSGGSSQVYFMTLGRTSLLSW

Src = Src (Homo sapiens, UniProt P12931); assay: Kinase activity assay, Src
Sequence of Src (P12931 whole entry): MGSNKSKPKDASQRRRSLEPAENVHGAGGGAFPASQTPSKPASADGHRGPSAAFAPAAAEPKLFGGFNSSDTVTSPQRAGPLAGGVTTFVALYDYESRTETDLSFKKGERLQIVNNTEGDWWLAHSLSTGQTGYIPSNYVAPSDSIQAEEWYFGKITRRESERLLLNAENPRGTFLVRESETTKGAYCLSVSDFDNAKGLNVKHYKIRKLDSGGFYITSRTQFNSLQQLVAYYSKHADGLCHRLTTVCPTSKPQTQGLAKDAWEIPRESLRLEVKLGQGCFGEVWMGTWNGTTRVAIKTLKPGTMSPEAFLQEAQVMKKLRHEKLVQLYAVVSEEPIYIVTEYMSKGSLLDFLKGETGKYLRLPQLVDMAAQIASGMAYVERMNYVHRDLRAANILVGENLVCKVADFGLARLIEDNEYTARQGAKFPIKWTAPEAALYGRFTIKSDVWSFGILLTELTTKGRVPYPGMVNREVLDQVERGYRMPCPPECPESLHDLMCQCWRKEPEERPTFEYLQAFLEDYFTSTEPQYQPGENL

B-Raf = B-Raf (Homo sapiens, UniProt P15056); assay: Kinase activity assay, B-Raf; type: biochemical; details: read-out: activity toward kinase B-Raf, IC50
C-Raf = C-Raf (Homo sapiens, UniProt P04049); assay: Kinase activity assay, C-Raf

Sequence of B-Raf V600E (P15056 whole entry V600E): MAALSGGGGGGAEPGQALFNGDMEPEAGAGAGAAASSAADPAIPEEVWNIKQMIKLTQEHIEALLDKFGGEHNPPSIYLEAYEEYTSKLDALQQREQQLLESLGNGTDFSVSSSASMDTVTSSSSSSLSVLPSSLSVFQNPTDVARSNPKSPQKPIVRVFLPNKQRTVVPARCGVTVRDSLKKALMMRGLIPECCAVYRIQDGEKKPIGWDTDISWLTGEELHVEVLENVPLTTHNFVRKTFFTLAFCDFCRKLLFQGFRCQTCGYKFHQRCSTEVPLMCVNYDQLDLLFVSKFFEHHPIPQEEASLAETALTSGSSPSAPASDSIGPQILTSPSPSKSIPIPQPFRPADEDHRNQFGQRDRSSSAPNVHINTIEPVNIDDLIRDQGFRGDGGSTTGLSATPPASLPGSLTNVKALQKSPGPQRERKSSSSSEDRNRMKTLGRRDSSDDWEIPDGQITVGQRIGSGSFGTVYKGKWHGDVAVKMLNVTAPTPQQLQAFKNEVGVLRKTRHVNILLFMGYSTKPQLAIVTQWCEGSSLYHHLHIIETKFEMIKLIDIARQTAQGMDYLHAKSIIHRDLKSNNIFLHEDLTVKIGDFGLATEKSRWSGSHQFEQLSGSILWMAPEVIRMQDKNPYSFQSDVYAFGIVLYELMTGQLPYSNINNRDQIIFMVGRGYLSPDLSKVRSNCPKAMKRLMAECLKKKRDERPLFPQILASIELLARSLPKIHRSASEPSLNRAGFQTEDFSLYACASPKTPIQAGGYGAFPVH
Sequence of Btk (Q06187 whole entry): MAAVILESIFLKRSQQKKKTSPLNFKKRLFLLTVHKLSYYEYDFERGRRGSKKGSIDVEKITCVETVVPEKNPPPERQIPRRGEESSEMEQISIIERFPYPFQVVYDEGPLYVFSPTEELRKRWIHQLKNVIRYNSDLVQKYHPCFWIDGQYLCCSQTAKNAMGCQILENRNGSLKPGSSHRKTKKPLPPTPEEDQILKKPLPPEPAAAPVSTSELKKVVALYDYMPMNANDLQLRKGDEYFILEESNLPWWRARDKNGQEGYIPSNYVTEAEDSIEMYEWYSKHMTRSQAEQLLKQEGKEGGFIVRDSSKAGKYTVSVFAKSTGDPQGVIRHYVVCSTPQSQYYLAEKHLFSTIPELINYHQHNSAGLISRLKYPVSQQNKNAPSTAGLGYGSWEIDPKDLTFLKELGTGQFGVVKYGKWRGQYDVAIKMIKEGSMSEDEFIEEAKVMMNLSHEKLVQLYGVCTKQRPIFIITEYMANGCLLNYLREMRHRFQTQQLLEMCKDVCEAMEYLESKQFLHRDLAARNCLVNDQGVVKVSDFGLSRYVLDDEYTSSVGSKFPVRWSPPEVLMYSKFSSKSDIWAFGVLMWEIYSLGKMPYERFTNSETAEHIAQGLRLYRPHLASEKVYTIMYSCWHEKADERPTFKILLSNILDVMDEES
Sequence of Kit (P10721 26-976): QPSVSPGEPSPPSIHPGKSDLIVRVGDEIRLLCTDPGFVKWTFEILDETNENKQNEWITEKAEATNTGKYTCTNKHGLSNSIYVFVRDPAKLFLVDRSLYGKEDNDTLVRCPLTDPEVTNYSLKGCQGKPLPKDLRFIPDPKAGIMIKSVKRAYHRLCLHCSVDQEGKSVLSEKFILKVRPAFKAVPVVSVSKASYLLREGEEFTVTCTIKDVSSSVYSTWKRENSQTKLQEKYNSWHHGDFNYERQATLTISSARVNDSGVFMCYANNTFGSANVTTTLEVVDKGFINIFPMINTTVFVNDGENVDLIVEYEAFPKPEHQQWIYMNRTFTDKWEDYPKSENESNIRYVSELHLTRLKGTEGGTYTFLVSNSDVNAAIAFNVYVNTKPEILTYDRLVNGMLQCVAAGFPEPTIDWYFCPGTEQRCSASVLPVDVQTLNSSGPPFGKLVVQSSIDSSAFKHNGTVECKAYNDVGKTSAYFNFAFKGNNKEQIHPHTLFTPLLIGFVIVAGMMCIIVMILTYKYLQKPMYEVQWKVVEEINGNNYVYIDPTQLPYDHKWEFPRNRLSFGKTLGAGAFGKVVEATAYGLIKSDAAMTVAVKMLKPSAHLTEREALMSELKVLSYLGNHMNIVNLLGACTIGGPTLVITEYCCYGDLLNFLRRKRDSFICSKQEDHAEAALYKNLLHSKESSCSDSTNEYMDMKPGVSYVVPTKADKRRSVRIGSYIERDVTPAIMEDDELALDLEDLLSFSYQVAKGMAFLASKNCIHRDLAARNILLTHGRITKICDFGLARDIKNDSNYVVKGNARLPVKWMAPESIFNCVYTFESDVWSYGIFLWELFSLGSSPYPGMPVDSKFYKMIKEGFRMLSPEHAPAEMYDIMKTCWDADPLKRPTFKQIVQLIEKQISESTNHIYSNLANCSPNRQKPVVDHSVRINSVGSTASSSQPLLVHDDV

Row | SMILES | IC50 (Kit) | IC50 (B-Raf V600E) | IC50 (Kdr) | IC50 (Btk) | IC50 (Fms) | IC50 (TEC) | IC50 (MAP4K4) | IC50 (Src) | IC50 (B-Raf) | IC50 (C-Raf)
1 | CCCS(=O)(=O)Nc1ccc(F)c(C(=O)c2c[nH]c3ncc(-c4cnn(CCN5CCOCC5)c4)cc23)c1F [P-2177, Propane-1-sulfonic acid (2,4-difluoro-3-{5-[1-(2-morpholin-4-yl-ethyl)-1H-pyrazol-4-yl]-1H-pyrrolo[2,3-b]pyridine-3-carbonyl}-phenyl)-amide] | ≤ 10 µM | ≤ 10 µM | ≤ 10 µM | ≤ 10 µM | ≤ 10 µM | ≤ 10 µM | – | ≤ 10 µM | ≤ 10 µM | –
2 | Cc1cnc2[nH]cc(C(=O)c3cc(NS(=O)(=O)C4CCCC4)ccc3F)c2c1 [P-2448, Cyclopentanesulfonic acid [4-fluoro-3-(5-methyl-1H-pyrrolo[2,3-b]pyridine-3-carbonyl)-phenyl]-amide] | ≤ 10 µM | – | ≤ 10 µM | ≤ 10 µM | ≤ 10 µM | ≤ 10 µM | ≤ 10 µM | ≤ 10 µM | – | –
3 | O=C(c1cc(NS(=O)(=O)c2cccc(F)c2)ccc1F)c1c[nH]c2ncccc12 [P-2120, 3-Fluoro-N-[4-fluoro-3-(1H-pyrrolo[2,3-b]pyridine-3-carbonyl)-phenyl]-benzenesulfonamide] | ≤ 10 µM | ≤ 10 µM | ≤ 10 µM | ≤ 10 µM | ≤ 10 µM | ≤ 10 µM | – | – | – | –
4 | CS(=O)(=O)c1cccc(-c2cnc3[nH]cc(C(=O)c4cccc(NS(=O)(=O)C5CCCCC5)c4)c3c2)c1 [P-2461, Cyclohexanesulfonic acid {3-[5-(3-methanesulfonyl-phenyl)-1H-pyrrolo[2,3-b]pyridine-3-carbonyl]-phenyl}-amide] | ≤ 10 µM | – | ≤ 10 µM | ≤ 10 µM | ≤ 10 µM | ≤ 10 µM | ≤ 10 µM | – | – | –
5 | CCCCS(=O)(=O)Nc1cccc(C(=O)c2c[nH]c3ncc(-c4cnn(C)c4)cc23)c1 [P-2455, Butane-1-sulfonic acid {3-[5-(1-methyl-1H-pyrazol-4-yl)-1H-pyrrolo[2,3-b]pyridine-3-carbonyl]-phenyl}-amide] | ≤ 10 µM | ≤ 10 µM | ≤ 10 µM | ≤ 10 µM | ≤ 10 µM | ≤ 10 µM | – | – | – | –
6 | Cn1cc(-c2cnc3[nH]cc(C(=O)c4cccc(NS(=O)(=O)c5cccc(F)c5)c4)c3c2)cn1 [P-2136, 3-Fluoro-N-{3-[5-(1-methyl-1H-pyrazol-4-yl)-1H-pyrrolo[2,3-b]pyridine-3-carbonyl]-phenyl}-benzenesulfonamide] | ≤ 10 µM | ≤ 10 µM | ≤ 10 µM | ≤ 10 µM | ≤ 10 µM | ≤ 10 µM | – | – | – | –
7 | Cn1cc(-c2cnc3[nH]cc(C(=O)c4cccc(NS(=O)(=O)c5cccc(Cl)c5)c4)c3c2)cn1 [P-2134, 3-Chloro-N-{3-[5-(1-methyl-1H-pyrazol-4-yl)-1H-pyrrolo[2,3-b]pyridine-3-carbonyl]-phenyl}-benzenesulfonamide] | ≤ 10 µM | ≤ 10 µM | ≤ 10 µM | ≤ 10 µM | ≤ 10 µM | ≤ 10 µM | – | – | – | –
8 | O=C(c1cc(NS(=O)(=O)N2CCCCC2)ccc1F)c1c[nH]c2ncc(Cl)cc12 [P-2468, Piperidine-1-sulfonic acid [3-(5-chloro-1H-pyrrolo[2,3-b]pyridine-3-carbonyl)-4-fluoro-phenyl]-amide] | ≤ 10 µM | ≤ 10 µM | ≤ 10 µM | ≤ 10 µM | ≤ 10 µM | ≤ 10 µM | – | – | – | –
9 | CCC(C)S(=O)(=O)Nc1ccc(F)c(C(=O)c2c[nH]c3ncc(OC)cc23)c1F (stereo not drawn) [P-2308, Butane-2-sulfonic acid [2,4-difluoro-3-(5-methoxy-1H-pyrrolo[2,3-b]pyridine-3-carbonyl)-phenyl]-amide] | – | ≤ 10 µM | ≤ 10 µM | ≤ 10 µM | – | ≤ 10 µM | ≤ 10 µM | ≤ 10 µM | – | ≤ 10 µM
10 | Cn1cc(-c2cnc3[nH]cc(C(=O)c4cccc(NS(=O)(=O)c5cccc(C(F)(F)F)c5)c4)c3c2)cn1 [P-2131, N-{3-[5-(1-Methyl-1H-pyrazol-4-yl)-1H-pyrrolo[2,3-b]pyridine-3-carbonyl]-phenyl}-3-trifluoromethyl-benzenesulfonamide] | ≤ 10 µM | ≤ 10 µM | ≤ 10 µM | ≤ 10 µM | ≤ 10 µM | ≤ 10 µM | – | – | – | –
11 | CCS(=O)(=O)Nc1ccc(F)c(C(=O)c2c[nH]c3ncc(-c4cnn(C)c4)cc23)c1F [P-2271, Ethanesulfonic acid {2,4-difluoro-3-[5-(1-methyl-1H-pyrazol-4-yl)-1H-pyrrolo[2,3-b]pyridine-3-carbonyl]-phenyl}-amide] | ≤ 10 µM | ≤ 10 µM | ≤ 10 µM | ≤ 10 µM | ≤ 10 µM | ≤ 10 µM | – | ≤ 10 µM | ≤ 10 µM | –

Second part, the compound after the results:

Row | IC50 (Kit) | IC50 (B-Raf V600E) | IC50 (Kdr) | IC50 (Btk) | IC50 (Fms) | IC50 (TEC) | IC50 (MAP4K4) | IC50 (Src) | IC50 (B-Raf) | IC50 (C-Raf) | SMILES
12 | ≤ 10 µM | ≤ 10 µM | ≤ 10 µM | ≤ 10 µM | ≤ 10 µM | ≤ 10 µM | – | – | – | – | Cn1cc(-c2cnc3[nH]cc(C(=O)c4cccc(NS(=O)(=O)c5ccc(Cl)cc5)c4)c3c2)cn1 [P-2129, 4-Chloro-N-{3-[5-(1-methyl-1H-pyrazol-4-yl)-1H-pyrrolo[2,3-b]pyridine-3-carbonyl]-phenyl}-benzenesulfonamide]
13 | ≤ 10 µM | ≤ 10 µM | ≤ 10 µM | ≤ 10 µM | ≤ 10 µM | ≤ 10 µM | ≤ 10 µM | – | – | – | COc1cnc2[nH]cc(C(=O)c3cccc(NS(=O)(=O)C4CCCC4)c3)c2c1 [P-2464, Cyclopentanesulfonic acid [3-(5-methoxy-1H-pyrrolo[2,3-b]pyridine-3-carbonyl)-phenyl]-amide]
14 | ≤ 10 µM | ≤ 10 µM | ≤ 10 µM | ≤ 10 µM | ≤ 10 µM | ≤ 10 µM | – | – | – | – | Cn1cc(-c2cnc3[nH]cc(C(=O)c4cccc(NS(=O)(=O)c5ccc(F)cc5)c4)c3c2)cn1 [P-2130, 4-Fluoro-N-{3-[5-(1-methyl-1H-pyrazol-4-yl)-1H-pyrrolo[2,3-b]pyridine-3-carbonyl]-phenyl}-benzenesulfonamide]
15 | ≤ 10 µM | ≤ 10 µM | ≤ 10 µM | ≤ 10 µM | ≤ 10 µM | ≤ 10 µM | – | ≤ 10 µM | – | – | CCCS(=O)(=O)Nc1ccc(F)c(C(=O)c2c[nH]c3ncc(-c4ccc(NC(C)=O)cc4)cc23)c1F [P-2161, N-(4-{3-[2,6-Difluoro-3-(propane-1-sulfonylamino)-benzoyl]-1H-pyrrolo[2,3-b]pyridin-5-yl}-phenyl)-acetamide]
16 | ≤ 10 µM | – | ≤ 10 µM | ≤ 10 µM | ≤ 10 µM | ≤ 10 µM | ≤ 10 µM | ≤ 10 µM | – | – | COc1cnc2[nH]cc(C(=O)c3cccc(NS(=O)(=O)C4CCCCC4)c3)c2c1 [P-2460, Cyclohexanesulfonic acid [3-(5-methoxy-1H-pyrrolo[2,3-b]pyridine-3-carbonyl)-phenyl]-amide]
17 | ≤ 10 µM | ≤ 10 µM | ≤ 10 µM | ≤ 10 µM | ≤ 10 µM | ≤ 10 µM | – | – | – | – | CCCS(=O)(=O)Nc1cccc(C(=O)c2c[nH]c3ncc(-c4cnn(C)c4)cc23)c1 [P-2454, Propane-1-sulfonic acid {3-[5-(1-methyl-1H-pyrazol-4-yl)-1H-pyrrolo[2,3-b]pyridine-3-carbonyl]-phenyl}-amide]
18 | ≤ 10 µM | – | ≤ 10 µM | ≤ 10 µM | ≤ 10 µM | ≤ 10 µM | ≤ 10 µM | ≤ 10 µM | – | – | CS(=O)(=O)c1cccc(-c2cnc3[nH]cc(C(=O)c4cc(NS(=O)(=O)c5cccnc5)ccc4F)c3c2)c1 [P-2138, Pyridine-3-sulfonic acid {4-fluoro-3-[5-(3-methanesulfonyl-phenyl)-1H-pyrrolo[2,3-b]pyridine-3-carbonyl]-phenyl}-amide]
19 | ≤ 10 µM | ≤ 10 µM | ≤ 10 µM | ≤ 10 µM | ≤ 10 µM | ≤ 10 µM | – | ≤ 10 µM | ≤ 10 µM | – | Cn1cc(-c2cnc3[nH]cc(C(=O)c4c(F)ccc(NS(=O)(=O)C5CC5)c4F)c3c2)cn1 [P-2352, Cyclopropanesulfonic acid {2,4-difluoro-3-[5-(1-methyl-1H-pyrazol-4-yl)-1H-pyrrolo[2,3-b]pyridine-3-carbonyl]-phenyl}-amide]

From US20120122860A1, “SOLID FORMS OF SULFONAMIDES AND AMINO ACIDS” (Plexxikon, Inc., priority 2009, published 2012)
